Consider 28 compounds from US20240308992A1 (Biopolar Youtang(Guangdong) Pharmaceutical Co., Ltd., priority 2021, published 2024).

The experiment deals with T1, Drak2 (Homo sapiens, UniProt O94768).
T1 sequence (O94768 1-372): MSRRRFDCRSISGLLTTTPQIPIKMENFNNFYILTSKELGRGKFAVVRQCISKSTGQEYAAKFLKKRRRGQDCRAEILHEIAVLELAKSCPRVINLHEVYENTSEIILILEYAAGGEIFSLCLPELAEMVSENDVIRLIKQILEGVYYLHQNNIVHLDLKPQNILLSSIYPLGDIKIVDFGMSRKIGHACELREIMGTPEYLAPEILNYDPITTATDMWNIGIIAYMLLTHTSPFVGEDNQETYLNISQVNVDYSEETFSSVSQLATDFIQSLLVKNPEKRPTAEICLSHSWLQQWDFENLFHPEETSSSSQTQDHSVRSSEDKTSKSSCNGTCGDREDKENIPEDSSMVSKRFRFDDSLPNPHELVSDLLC
In words: Drak2 activity test, ADP-Glo kinase assay (Promega). It is filed as biochemical. Particulars: inhibition of Drak2 kinase activity, 2 h room temperature, activity range classes, read-out: IC50_Drak2.
Take `COc1cc(-c2cncc(-c3cc(NC(=O)CC4CCCC4)cs3)n2)ccc1C(=O)N(C)C1CCN(C)CC1` [Example B61, 4-(6-(4-(2-cyclopentylacetamido)thiophen-2-yl)pyrazin-2-yl)-2-methoxy-N-methyl-N-(1-methylpiperidin-4-yl)benzamide]: the IC50 was 11 to 100 nM.

In the case of `COc1cc(-c2cncc(-c3cc(NC(=O)CC4CCC4)cs3)n2)ccc1C(=O)Nc1nnco1` [Example B62, 4-(6-(4-(2-cyclobutylacetamido)thiophen-2-yl)pyrazin-2-yl)-2-methoxy-N-(1,3,4-oxadiazol-2-yl)benzamide], the IC50 lay within 11 to 100 nM.

Take `COc1cc(-c2cncc(-c3cc(NC(=O)CC4CCC4)cs3)n2)ccc1C(=O)N(C)C1CCN(C)CC1` [Example B63, 4-(6-(4-(2-cyclobutylacetamido)thiophen-2-yl)pyrazin-2-yl)-2-methoxy-N-methyl-N-(1-methylpiperidin-4-yl)benzamide]: the IC50 was < 10 nM.

With `COc1cc(-c2cncc(-c3cc(NC(=O)CC4CCCC4)cs3)n2)ccc1C(=O)Nc1nnco1` [Example B64, 4-(6-(4-(2-cyclopentylacetamido)thiophen-2-yl)pyrazin-2-yl)-2-methoxy-N-(1,3,4-oxadiazol-2-yl)benzamide], the IC50 was in the range of 11 to 100 nM.

Take `CCCCC(=O)Nc1csc(-c2nccc(-c3ccc(C(=O)N(C)C4CCN(C)CC4)c(OC)c3)n2)c1` [Example B66, 2-methoxy-N-methyl-N-(1-methylpiperidin-4-yl)-4-(2-(4-pentanamidothiophen-2-yl)pyrimidin-4-yl)benzamide]: the IC50 fell in the range of 1000 to 10000 nM.

For `CCCCC(=O)Nc1csc(-c2cncc(-c3ccc(C(=O)N(C)C4CCN(C(C)C)CC4)c(OC)c3)n2)c1` [Example B68, N-(1-isopropylpiperidin-4-yl)-2-methoxy-N-methyl-4-(6-(4-pentanamidothiophen-2-yl)pyrazin-2-yl)benzamide], the IC50 is < 10 nM.

Consider `CCCCC(=O)Nc1csc(-c2cncc(-c3ccc(C(=O)N(C)C4CCN(C5CC5)CC4)c(OC)c3)n2)c1` [Example B69, N-(1-cyclopropylpiperidin-4-yl)-2-methoxy-N-methyl-4-(6-(4-pentanamidothiophen-2-yl)pyrazin-2-yl)benzamide], for which the IC50 was < 10 nM.

In the case of `CCCCC(=O)Nc1csc(-c2cncc(-c3ccc(C(=O)N(C)C4CCN(CC(F)(F)F)CC4)c(OC)c3)n2)c1` [Example B70, 2-methoxy-N-methyl-4-(6-(4-pentanamidothiophen-2-yl)pyrazin-2-yl)-N-(1-(2,2,2-trifluoroethyl)piperidin-4-yl)benzamide], the IC50 lay within 101 to 1000 nM.

As for `CCCCC(=O)Nc1csc(-c2cncc(-c3ccc(C(=O)N(C)C4CCN(c5cnn(C)c5)CC4)c(OC)c3)n2)c1` [Example B71, 2-methoxy-N-methyl-N-(1-(1-methyl-1H-pyrazol-4-yl)piperidin-4-yl)-4-(6-(4-pentanamidothiophen-2-yl)pyrazin-2-yl)benzamide], the IC50 was in the range of 11 to 100 nM.

For the compound `CCCCC(=O)Nc1csc(-c2cncc(-c3ccc(C(=O)N(C)C4CCN(c5ncccn5)CC4)c(OC)c3)n2)c1` [Example B72, 2-methoxy-N-methyl-4-(6-(4-pentanamidothiophen-2-yl)pyrazin-2-yl)-N-(1-(pyrimidin-2-yl)piperidin-4-yl)benzamide], the IC50 lay within 101 to 1000 nM.

As to `CCCCC(=O)Nc1csc(-c2cncc(-c3ccc(C(=O)N(C)C4CCN(C)CC4)c(F)c3)n2)c1` [Example B73, 2-fluoro-N-methyl-N-(1-methylpiperidin-4-yl)-4-(6-(4-pentanamidothiophen-2-yl)pyrazin-2-yl)benzamide], the IC50 is 101 to 1000 nM.

`CCCCC(=O)Nc1csc(-c2cncc(-c3cc(F)c(C(=O)N(C)C4CCN(C)CC4)c(F)c3)n2)c1` [Example B74, 2,6-difluoro-N-methyl-N-(1-methylpiperidin-4-yl)-4-(6-(4-pentanamidothiophen-2-yl)pyrazin-2-yl)benzamide]: the IC50 is 101 to 1000 nM.

`CCCCC(=O)Nc1csc(-c2cccc(-c3ccc(C(=O)N(C4CC4)C4CCN(C)CC4)c(OC)c3)n2)c1` [Example B75, N-cyclopropyl-2-methoxy-N-(1-methylpiperidin-4-yl)-4-(6-(4-pentanamidothiophen-2-yl)pyridin-2-yl)benzamide]: the IC50 was > 10000 nM.

Regarding `CCCCC(=O)Nc1csc(-c2cncc(-c3ccc(C(=O)N(C4CC4)C4CCN(C)CC4)c(OC)c3)n2)c1` [Example B76, N-cyclopropyl-2-methoxy-N-(1-methylpiperidin-4-yl)-4-(6-(4-pentanamidothiophen-2-yl)pyrazin-2-yl)benzamide], the IC50 was in the range of 11 to 100 nM.

On to `CCCCC(=O)Nc1csc(-c2cncc(-c3ccc(C(=O)N(C4CC4)C4CCN(C5CC5)CC4)c(OC)c3)n2)c1` [Example B78, N-cyclopropyl-N-(1-cyclopropylpiperidin-4-yl)-2-methoxy-4-(6-(4-pentanamidothiophen-2-yl)pyrazin-2-yl)benzamide], for which the IC50 lay in the range of 11 to 100 nM.

For `COc1cc(-c2cncc(-c3cc(NC(=O)CC4CC4)cs3)n2)ccc1C(=O)N(C)OC` [Example B79, 4-(6-(4-(2-cyclopropylacetamido)thiophen-2-yl)pyrazin-2-yl)-N,2-dimethoxy-N-methylbenzamide], the IC50 is 11 to 100 nM.

For `COc1cc(-c2cncc(-c3cc(NC(=O)CC45CC(C4)C5)cs3)n2)ccc1C(=O)Nc1nnco1` [Example B80, 4-(6-(4-(2-(bicyclo[1.1.1]pentan-1-yl)acetamido)thiophen-2-yl)pyrazin-2-yl)-2-methoxy-N-(1,3,4-oxadiazol-2-yl)benzamide], the IC50 is 11 to 100 nM.

In the case of `COc1cc(-c2cncc(-c3cc(NC(=O)CC4CCC4)cs3)n2)ccc1C(=O)N(C)OC` [Example B81, 4-(6-(4-(2-cyclobutylacetamido)thiophen-2-yl)pyrazin-2-yl)-N,2-dimethoxy-N-methylbenzamide], the IC50 is 11 to 100 nM.

For the compound `COc1cc(-c2cncc(-c3cc(NC(=O)CC4(C)COC4)cs3)n2)ccc1C(=O)N(C)C1CCN(C)CC1` [Example B82, 2-methoxy-N-methyl-4-(6-(4-(2-(3-methyloxetan-3-yl)acetamido)thiophen-2-yl)pyrazin-2-yl)-N-(1-methylpiperidin-4-yl)benzamide], the IC50 was in the range of 101 to 1000 nM.

Turning to `COc1cc(-c2cncc(-c3cc(NC(=O)CC4CC(F)(F)C4)cs3)n2)ccc1C(=O)N(C)C1CCN(C)CC1` [Example B83, 4-(6-(4-(2-(3,3-difluorocyclobutyl)acetamido)thiophen-2-yl)pyrazin-2-yl)-2-methoxy-N-methyl-N-(1-methylpiperidin-4-yl)benzamide], the IC50 lay in the range of 11 to 100 nM.

With `COc1cc(-c2cncc(-c3cc(NC(=O)C4CC45CCC5)cs3)n2)ccc1C(=O)N(C)C1CCN(C)CC1` (stereo not shown) [Example B84, N-(5-(6-(3-methoxy-4-(methyl(1-methylpiperidin-4-yl)carbamoyl)phenyl)pyrazin-2-yl)thiophen-3-yl)spiro[2.3]hexane-1-carboxamide], the IC50 was in the range of 11 to 100 nM.

Take `COc1cc(-c2cncc(-c3cc(NC(=O)CC4(c5ccc(C(F)(F)F)cc5)CCC4)cs3)n2)ccc1C(=O)N(C)C1CCN(C)CC1` [Example B85, 2-methoxy-N-methyl-N-(1-methylpiperidin-4-yl)-4-(6-(4-(2-(1-(4-(trifluoromethyl)phenyl)cyclobutyl)acetamido)thiophen-2-yl)pyrazin-2-yl)benzamide]: the IC50 lay within 101 to 1000 nM.

Take `CCC1(CC(=O)Nc2csc(-c3cncc(-c4ccc(C(=O)N(C)C5CCN(C)CC5)c(OC)c4)n3)c2)CCC1` [Example B86, 4-(6-(4-(2-(1-ethylcyclobutyl)acetamido)thiophen-2-yl)pyrazin-2-yl)-2-methoxy-N-methyl-N-(1-methylpiperidin-4-yl)benzamide]: the IC50 lay within 101 to 1000 nM.

On to `COc1cc(-c2cncc(-c3cc(NC(=O)CC4CC(C(C)=O)C4(C)C)cs3)n2)ccc1C(=O)N(C)C1CCN(C)CC1` (stereo not shown) [Example B87, 4-(6-(4-(2-(3-acetyl-2,2-dimethylcyclobutyl)acetamido)thiophen-2-yl)pyrazin-2-yl)-2-methoxy-N-methyl-N-(1-methylpiperidin-4-yl)benzamide], for which the IC50 fell in the range of 101 to 1000 nM.

Turning to `COc1cc(-c2cncc(-c3cc(NC(=O)C(N)C4CCC4)cs3)n2)ccc1C(=O)N(C)C1CCN(C)CC1` (stereo not shown) [Example B88, 4-(6-(4-(2-amino-2-cyclobutylacetamido)thiophen-2-yl)pyrazin-2-yl)-2-methoxy-N-methyl-N-(1-methylpiperidin-4-yl)benzamide], the IC50 lay in the range of 101 to 1000 nM.

Take `COc1cc(-c2cncc(-c3cc(NC(=O)CC4COC4)cs3)n2)ccc1C(=O)N(C)C1CCN(C)CC1` [Example B89, 2-methoxy-N-methyl-N-(1-methylpiperidin-4-yl)-4-(6-(4-(2-(oxetan-3-yl)acetamido)thiophen-2-yl)pyrazin-2-yl)benzamide]: the IC50 was 101 to 1000 nM.

`COc1cc(-c2cncc(-c3cc(NC(=O)CC4CC(F)C4)cs3)n2)ccc1C(=O)N(C)C1CCN(C)CC1` (stereo not shown) [Example B90, 4-(6-(4-(2-(3-fluorocyclobutyl)acetamido)thiophen-2-yl)pyrazin-2-yl)-2-methoxy-N-methyl-N-(1-methylpiperidin-4-yl)benzamide]: the IC50 is < 10 nM.

Consider `COc1cc(-c2cncc(-c3cc(NC(=O)CC4CC(C(C)=O)C4)cs3)n2)ccc1C(=O)N(C)C1CCN(C)CC1` (stereo not shown) [Example B91, 4-(6-(4-(2-(3-acetylcyclobutyl)acetamido)thiophen-2-yl)pyrazin-2-yl)-2-methoxy-N-methyl-N-(1-methylpiperidin-4-yl)benzamide], for which the IC50 was 101 to 1000 nM.
